The results in this text go back to ChEMBL document CHEMBL1806380, “Rigidized 1-aryl sulfonyl tryptamines: synthesis and pharmacological evaluation as 5-HT6 receptor ligands” (Bioorg Med Chem Lett, 2011).

Series [1] deals with 5-hydroxytryptamine receptor 6 (Homo sapiens) (UniProt P50406). The series is described as follows: Binding affinity to human recombinant 5HT6 receptor expressed in CHO cells co-expressing pCRE-Luc gene assessed as modulation of serotonin-induced intracellular cAMP level after 4 hrs by luciferase based luminescence assay. The class given is cell-based. For orientation: cAMP levels reflect the balance of adenylyl cyclase and phosphodiesterase activity.

Series [2] has as its target Sodium-dependent serotonin transporter (Homo sapiens) (UniProt P31645). Description: Inhibition of SERT at 0.5 uM.
Series [3] addresses D(2) dopamine receptor (Homo sapiens) (UniProt P14416). The series is described as follows: Inhibition of dopamine D2 receptor at 0.5 uM.
Series [4] concerns the target T1, 5-hydroxytryptamine receptor 2C (Homo sapiens) (UniProt P28335).
T1 sequence (whole entry): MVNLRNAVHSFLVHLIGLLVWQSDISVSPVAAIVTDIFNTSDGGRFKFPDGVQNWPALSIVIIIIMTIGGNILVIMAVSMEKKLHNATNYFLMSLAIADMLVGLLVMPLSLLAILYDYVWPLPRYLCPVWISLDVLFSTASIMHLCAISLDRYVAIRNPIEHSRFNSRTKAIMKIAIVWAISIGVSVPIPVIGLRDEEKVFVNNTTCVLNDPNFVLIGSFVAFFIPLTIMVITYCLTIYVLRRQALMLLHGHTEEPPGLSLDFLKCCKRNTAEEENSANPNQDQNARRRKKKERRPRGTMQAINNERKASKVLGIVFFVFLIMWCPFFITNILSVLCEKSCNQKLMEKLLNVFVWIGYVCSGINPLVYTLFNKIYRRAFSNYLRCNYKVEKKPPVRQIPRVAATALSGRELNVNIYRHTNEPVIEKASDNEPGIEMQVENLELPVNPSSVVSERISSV
Description: Inhibition of 5HT2C receptor at 0.5 uM.

The target of series [5] is 5-hydroxytryptamine receptor 4 (Homo sapiens) (UniProt Q13639). Description: Binding affinity to human recombinant 5HT4 receptor expressed in CHO cells co-expressing pCRE-Luc gene assessed as modulation of serotonin-induced intracellular cAMP level at 0.5 uM after 5 hrs by luciferase based luminescence assay. The series is classed as cell-based.
In series [6] the target is T2, Muscarinic acetylcholine receptor M1 (Homo sapiens) (UniProt P11229).
T2 sequence (whole entry): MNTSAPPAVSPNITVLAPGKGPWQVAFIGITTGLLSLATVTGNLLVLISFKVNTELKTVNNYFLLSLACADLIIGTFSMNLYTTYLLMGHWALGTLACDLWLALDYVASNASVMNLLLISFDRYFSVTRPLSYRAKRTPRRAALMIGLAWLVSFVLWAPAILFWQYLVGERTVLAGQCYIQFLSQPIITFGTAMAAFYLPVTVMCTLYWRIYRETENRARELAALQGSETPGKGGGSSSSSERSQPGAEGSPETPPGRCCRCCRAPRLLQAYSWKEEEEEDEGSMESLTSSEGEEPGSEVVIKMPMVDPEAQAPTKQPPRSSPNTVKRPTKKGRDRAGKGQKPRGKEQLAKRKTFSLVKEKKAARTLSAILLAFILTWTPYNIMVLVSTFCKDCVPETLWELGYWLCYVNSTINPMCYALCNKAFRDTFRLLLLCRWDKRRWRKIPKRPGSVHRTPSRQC
Description: Binding affinity to human muscarinic M1 receptor expressed in CHO cells co-expressing pCRE-Luc gene assessed as modulation of acetylcholine-induced intracellular cAMP level at 0.5 uM after 5 hrs by luciferase based luminescence assay. The series is classed as cell-based.

Series [7] addresses 5-hydroxytryptamine receptor 7 (Rattus norvegicus) (UniProt P32305). Description: Binding affinity to rat 5HT7 receptor expressed in CHO cells co-expressing pCRE-Luc gene assessed as modulation of serotonin-induced intracellular cAMP level at 0.5 uM after 5 hrs by luciferase based luminescence assay. The class given is cell-based.
The target of series [8] is Histamine H1 receptor (Homo sapiens) (UniProt P35367). Description: Inhibition of histamine H1 receptor at 0.5 uM.
Series [9] concerns the target Sodium-dependent dopamine transporter (Homo sapiens) (UniProt Q01959). Description: Inhibition of DAT at 0.5 uM.
The target of series [10] is Sodium-dependent noradrenaline transporter (Homo sapiens) (UniProt P23975). Description: Inhibition of NET at 0.5 uM.
For series [11], the target named is T3, Alpha-1B adrenergic receptor (Homo sapiens) (UniProt P35368).
T3 sequence (whole entry): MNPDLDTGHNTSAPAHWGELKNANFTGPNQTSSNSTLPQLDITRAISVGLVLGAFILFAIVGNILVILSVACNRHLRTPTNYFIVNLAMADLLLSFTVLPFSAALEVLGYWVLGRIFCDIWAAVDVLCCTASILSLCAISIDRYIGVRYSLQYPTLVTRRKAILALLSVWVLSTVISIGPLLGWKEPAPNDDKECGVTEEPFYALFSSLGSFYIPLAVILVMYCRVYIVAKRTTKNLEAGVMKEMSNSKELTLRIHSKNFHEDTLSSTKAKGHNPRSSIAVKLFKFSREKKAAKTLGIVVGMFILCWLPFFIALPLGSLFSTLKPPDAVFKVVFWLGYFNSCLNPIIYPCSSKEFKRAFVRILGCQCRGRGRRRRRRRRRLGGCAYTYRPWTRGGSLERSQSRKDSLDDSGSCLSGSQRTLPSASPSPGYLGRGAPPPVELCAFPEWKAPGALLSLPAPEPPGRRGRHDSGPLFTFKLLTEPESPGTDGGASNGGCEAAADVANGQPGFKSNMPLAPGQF
The series is described as follows: Inhibition of adrenergic alpha1b receptor at 0.5 uM.

The target in series [12] is 5-hydroxytryptamine receptor 2A (Homo sapiens) (UniProt P28223). Description: Inhibition of 5HT2A receptor at 0.5 uM.
Series [13] in a line: Metabolic stability in rat liver microsomes assessed as drug metabolized level after 30 mins. The class given is ADME, Microsome. Conditions: read-out: Activity. (In general: Liver microsomes are vesicles of endoplasmic reticulum, rich in cytochrome P450 enzymes.)
The nature of series [14]: Metabolic stability in human liver microsomes assessed as drug metabolized level after 30 mins. The class given is ADME, Microsome. Conditions: read-out: Activity.

A word on the inhibition: it is the share of the control response that was lost under treatment.

Chain of 5-hydroxytryptamine receptor 6 (Homo sapiens) (P50406 whole entry): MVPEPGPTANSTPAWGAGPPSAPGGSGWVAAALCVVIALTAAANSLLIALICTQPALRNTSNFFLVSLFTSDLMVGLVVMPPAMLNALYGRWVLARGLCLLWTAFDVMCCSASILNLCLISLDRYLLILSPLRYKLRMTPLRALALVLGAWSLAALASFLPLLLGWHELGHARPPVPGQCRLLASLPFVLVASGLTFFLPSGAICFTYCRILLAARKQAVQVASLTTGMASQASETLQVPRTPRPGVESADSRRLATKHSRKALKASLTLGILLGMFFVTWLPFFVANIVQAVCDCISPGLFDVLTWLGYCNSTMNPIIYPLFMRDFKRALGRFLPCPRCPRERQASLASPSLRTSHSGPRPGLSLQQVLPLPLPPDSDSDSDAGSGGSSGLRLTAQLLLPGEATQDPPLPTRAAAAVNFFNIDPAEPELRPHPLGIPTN
Chain of Sodium-dependent serotonin transporter (Homo sapiens) (P31645 whole entry, looked up): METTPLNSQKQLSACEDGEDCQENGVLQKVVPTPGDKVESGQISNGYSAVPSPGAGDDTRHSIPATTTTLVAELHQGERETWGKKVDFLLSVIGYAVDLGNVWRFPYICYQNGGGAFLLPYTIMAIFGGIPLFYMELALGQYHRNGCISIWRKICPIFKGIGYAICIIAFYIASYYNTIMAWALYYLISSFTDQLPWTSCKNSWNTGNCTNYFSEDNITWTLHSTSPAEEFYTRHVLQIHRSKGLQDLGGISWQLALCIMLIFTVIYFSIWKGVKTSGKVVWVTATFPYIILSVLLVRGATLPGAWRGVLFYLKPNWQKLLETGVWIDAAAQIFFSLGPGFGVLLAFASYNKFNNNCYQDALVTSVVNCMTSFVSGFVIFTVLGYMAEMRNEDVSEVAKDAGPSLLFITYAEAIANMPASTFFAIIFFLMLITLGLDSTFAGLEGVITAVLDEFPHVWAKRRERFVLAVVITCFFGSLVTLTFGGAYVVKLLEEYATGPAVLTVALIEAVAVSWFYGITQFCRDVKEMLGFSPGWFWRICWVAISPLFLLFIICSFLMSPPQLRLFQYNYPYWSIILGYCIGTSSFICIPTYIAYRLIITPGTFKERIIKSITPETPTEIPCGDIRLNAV
Chain of Sodium-dependent noradrenaline transporter (Homo sapiens) (P23975 whole entry): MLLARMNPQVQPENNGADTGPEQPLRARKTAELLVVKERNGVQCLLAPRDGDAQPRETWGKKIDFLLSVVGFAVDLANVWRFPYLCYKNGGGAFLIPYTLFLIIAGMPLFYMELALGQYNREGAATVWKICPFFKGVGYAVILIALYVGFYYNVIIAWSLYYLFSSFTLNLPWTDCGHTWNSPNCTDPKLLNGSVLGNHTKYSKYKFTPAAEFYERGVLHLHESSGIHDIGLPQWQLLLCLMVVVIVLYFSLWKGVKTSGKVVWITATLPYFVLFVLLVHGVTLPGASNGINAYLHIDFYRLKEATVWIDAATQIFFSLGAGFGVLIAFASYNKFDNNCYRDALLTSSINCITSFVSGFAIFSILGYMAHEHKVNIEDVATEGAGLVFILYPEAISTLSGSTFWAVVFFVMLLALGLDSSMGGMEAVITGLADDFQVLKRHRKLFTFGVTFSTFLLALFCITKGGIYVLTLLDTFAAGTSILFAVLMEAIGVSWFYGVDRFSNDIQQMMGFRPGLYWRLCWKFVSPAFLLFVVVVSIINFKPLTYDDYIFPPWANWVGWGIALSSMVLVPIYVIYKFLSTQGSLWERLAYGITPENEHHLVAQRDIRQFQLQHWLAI
Chain of 5-hydroxytryptamine receptor 7 (Rattus norvegicus) (P32305 whole entry): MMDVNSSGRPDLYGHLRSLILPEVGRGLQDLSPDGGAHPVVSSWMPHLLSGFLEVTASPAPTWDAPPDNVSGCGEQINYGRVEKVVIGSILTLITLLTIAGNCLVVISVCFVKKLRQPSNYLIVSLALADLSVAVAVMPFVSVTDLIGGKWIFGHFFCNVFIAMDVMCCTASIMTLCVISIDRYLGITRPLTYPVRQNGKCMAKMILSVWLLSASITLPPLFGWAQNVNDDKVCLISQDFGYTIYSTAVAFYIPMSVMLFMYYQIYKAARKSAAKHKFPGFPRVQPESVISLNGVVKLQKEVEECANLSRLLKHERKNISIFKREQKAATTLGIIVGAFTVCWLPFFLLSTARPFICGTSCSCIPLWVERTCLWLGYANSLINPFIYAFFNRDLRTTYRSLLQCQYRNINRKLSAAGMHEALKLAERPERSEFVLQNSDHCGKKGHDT
Chain of Histamine H1 receptor (Homo sapiens) (P35367 whole entry): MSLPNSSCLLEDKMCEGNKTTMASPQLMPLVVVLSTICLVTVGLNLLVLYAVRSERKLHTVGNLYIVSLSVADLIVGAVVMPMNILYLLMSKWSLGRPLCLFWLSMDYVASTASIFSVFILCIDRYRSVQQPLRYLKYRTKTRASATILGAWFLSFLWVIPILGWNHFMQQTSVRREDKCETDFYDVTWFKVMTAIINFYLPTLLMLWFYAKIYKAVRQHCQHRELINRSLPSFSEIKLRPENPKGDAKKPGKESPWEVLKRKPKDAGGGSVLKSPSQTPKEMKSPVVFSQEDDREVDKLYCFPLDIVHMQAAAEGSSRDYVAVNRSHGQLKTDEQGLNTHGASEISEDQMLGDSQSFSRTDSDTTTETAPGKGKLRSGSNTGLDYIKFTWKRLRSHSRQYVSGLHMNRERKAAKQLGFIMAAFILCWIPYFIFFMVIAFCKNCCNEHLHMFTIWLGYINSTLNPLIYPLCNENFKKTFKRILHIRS
Chain of 5-hydroxytryptamine receptor 2A (Homo sapiens) (P28223 whole entry): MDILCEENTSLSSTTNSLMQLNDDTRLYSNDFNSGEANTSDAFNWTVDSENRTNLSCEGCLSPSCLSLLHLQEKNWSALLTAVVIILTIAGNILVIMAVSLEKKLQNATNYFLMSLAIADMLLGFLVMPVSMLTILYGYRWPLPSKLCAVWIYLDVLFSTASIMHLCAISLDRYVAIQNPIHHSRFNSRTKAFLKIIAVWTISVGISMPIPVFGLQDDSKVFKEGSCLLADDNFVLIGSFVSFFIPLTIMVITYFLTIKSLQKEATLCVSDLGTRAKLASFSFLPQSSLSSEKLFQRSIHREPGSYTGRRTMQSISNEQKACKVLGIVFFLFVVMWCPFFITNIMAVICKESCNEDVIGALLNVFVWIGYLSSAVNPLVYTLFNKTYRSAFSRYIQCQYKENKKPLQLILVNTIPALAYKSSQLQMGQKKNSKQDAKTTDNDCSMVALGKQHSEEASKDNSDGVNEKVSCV
Chain of Sodium-dependent dopamine transporter (Homo sapiens) (Q01959 whole entry): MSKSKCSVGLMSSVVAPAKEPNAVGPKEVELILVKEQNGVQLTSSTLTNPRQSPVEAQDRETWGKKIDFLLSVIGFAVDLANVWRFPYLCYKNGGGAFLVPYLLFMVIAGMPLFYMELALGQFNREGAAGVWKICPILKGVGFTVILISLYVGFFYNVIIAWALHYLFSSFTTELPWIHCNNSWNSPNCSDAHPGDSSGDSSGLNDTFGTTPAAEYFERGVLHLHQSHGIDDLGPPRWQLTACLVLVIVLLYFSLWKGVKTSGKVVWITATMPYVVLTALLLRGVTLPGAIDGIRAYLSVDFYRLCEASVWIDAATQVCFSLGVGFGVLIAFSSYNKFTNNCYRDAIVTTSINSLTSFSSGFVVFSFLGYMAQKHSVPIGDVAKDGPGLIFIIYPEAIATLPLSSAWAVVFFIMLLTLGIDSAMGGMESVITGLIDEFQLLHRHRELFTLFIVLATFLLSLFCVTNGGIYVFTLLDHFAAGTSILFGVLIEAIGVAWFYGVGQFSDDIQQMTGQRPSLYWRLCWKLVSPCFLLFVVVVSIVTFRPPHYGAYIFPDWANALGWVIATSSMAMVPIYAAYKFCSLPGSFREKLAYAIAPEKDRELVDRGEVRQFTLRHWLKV
Chain of 5-hydroxytryptamine receptor 4 (Homo sapiens) (Q13639 whole entry): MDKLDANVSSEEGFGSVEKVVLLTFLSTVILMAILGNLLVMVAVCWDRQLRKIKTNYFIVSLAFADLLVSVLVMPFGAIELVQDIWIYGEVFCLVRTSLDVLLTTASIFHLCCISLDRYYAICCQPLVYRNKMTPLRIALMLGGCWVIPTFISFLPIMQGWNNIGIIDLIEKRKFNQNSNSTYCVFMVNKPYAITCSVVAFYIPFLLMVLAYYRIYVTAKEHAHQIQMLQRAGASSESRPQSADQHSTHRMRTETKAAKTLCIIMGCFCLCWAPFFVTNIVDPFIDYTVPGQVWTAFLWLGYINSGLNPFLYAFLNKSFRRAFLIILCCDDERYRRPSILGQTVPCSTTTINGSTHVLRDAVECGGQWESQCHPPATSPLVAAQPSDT
Chain of D(2) dopamine receptor (Homo sapiens) (P14416 whole entry): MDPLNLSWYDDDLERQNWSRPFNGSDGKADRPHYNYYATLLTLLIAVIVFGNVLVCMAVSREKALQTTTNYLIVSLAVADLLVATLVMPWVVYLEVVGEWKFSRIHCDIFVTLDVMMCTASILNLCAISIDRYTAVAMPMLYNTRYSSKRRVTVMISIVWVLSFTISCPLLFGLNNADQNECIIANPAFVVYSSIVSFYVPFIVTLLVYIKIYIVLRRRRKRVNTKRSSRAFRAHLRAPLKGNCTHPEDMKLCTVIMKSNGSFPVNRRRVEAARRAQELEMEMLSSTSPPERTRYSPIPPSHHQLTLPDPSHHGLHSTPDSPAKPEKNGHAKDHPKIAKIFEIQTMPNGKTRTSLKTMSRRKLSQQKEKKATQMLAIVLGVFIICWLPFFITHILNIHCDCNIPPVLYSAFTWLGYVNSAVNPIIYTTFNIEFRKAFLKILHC

For the compound `CN1CC(Cl)=C(c2cn(S(=O)(=O)c3ccc(F)cc3)c3ccccc23)C1`, in series [1], the Kb turned out to be 0.6 nM. In addition, the inhibition in series [2], in series [3], in series [4], in [5], in series [6] and in [7] was below 50% throughout. Besides, the inhibition in [8], in [9], in [10], in series [11] and in series [12] was below 50% throughout.
For `COc1ccc2c(c1)c(C1=C(Cl)CN(C)C1)cn2S(=O)(=O)c1ccccc1Br`, the Kb in [1] amounted to 0.3 nM. The inhibition in series [2], in series [3], in [4], in series [5], in series [6] and in series [7] was below 50% each time. Also, the inhibition in series [8], in [9], in series [10], in [11] and in series [12] was below 50% in each case.
Consider `COc1ccc(S(=O)(=O)n2cc(C3=C(Cl)CN(C)C3)c3cc(OC)ccc32)cc1`, for which, in series [1], the Kb amounted to 1.65 nM. Besides, the inhibition in [2], in series [3], in series [4], in series [5], in series [6] and in series [7] was below 50% throughout. Further, the inhibition in [8], in series [9], in series [10], in series [11] and in series [12] was below 50% throughout.
With `COc1ccc2c(c1)c(C1=C(Cl)CN(C)C1)cn2S(=O)(=O)c1ccccc1`, the Kb in series [1] is 0.1 nM. Further, the metabolised at 0.5 h in series [13] worked out at 96%; in series [14] it was 97%. For the same compound, the inhibition in series [2], in [3], in series [4], in series [5], in [6] and in [7] was below 50% in each case. In addition, the inhibition in series [8], in series [9], in [10], in series [11] and in [12] was below 50% each time.
Take `CN1CC(Cl)=C(c2cn(S(=O)(=O)c3ccc(Br)cc3)c3ccccc23)C1`: the Kb in [1] came out at 0.35 nM. In addition, the inhibition in [2], in series [3], in series [4], in series [5], in series [6] and in [7] was below 50% in each case. For the same compound, the inhibition in series [8], in series [9], in series [10], in series [11] and in series [12] was below 50% each time.
